Reference: PubChem BioAssay (NCI)
Several values for one entry are separate records, joined by “and”; a condition that tells them apart may be missing. Equal entries are not always repeated.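 Protocol summary: plate cells (96-well), add compound at 5 concentrations, incubate 48 h, interpolate endpoints linearly. At the GI50, growth is halved. TGI: total growth inhibition.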

How the values were obtained:
Assay in all cases: growth of human tumour cells (NCI), 48 h
786-0 renal = system: 786-0 renal
ACHN renal = system: ACHN renal
BT-549 breast = system: BT-549 breast
CAKI-1 renal = system: CAKI-1 renal
DU-145 prostate = system: DU-145 prostate
SK-OV-3 ovarian = system: SK-OV-3 ovarian
SN12C renal = system: SN12C renal
T-47D breast = system: T-47D breast

Row | SMILES | GI50 (786-0 renal) | TGI (786-0 renal) | GI50 (ACHN renal) | TGI (ACHN renal) | GI50 (BT-549 breast) | TGI (BT-549 breast) | GI50 (CAKI-1 renal) | TGI (CAKI-1 renal) | GI50 (DU-145 prostate) | TGI (DU-145 prostate) | GI50 (SK-OV-3 ovarian) | TGI (SK-OV-3 ovarian) | GI50 (SN12C renal) | TGI (SN12C renal) | GI50 (T-47D breast) | TGI (T-47D breast)
1 | CCC1CCCCN1C(=S)N/N=C(\C)c1ccccn1 (configuration not stated) | 0.853 µM | 2.39 µM | < 0.0175 µM | 1.67 µM | 0.092 µM | 2.72 µM | 0.0466 µM | 1.83 µM | 0.292 µM | 3.75 µM | 0.304 µM | 2.46 µM | 0.114 µM | 3.87 µM | < 0.0146 µM | 1.63 µM
2 | CNC(=O)c1cncc(/C=C/c2c(C)cccc2C)c1 | > 25 µM | > 25 µM | 16.3 µM | > 25 µM | > 25 µM | > 25 µM | 10.2 µM | > 25 µM | > 25 µM | > 25 µM | > 25 µM | > 25 µM | 20.6 µM | > 25 µM | > 25 µM | > 25 µM
3 | NCCCn1c2c(c3cc4c(cc3c1=O)OCO4)C(=O)c1ccccc1-2 | 1.49 µM | 2.88 µM | 0.119 µM | 1.22 µM |  |  | 0.688 µM | 2.22 µM | 0.907 µM | 2.63 µM | 10.5 µM | > 100 µM | 0.975 µM | 2.49 µM | 5.18 µM | > 100 µM
4 | O=C1c2cccc3cc([N+](=O)[O-])cc(c23)C(=O)N1CCN1CCCC1 | 0.28 µM | 1.2 µM | 0.193 µM | 0.706 µM | 1.56 µM | 7.55 µM | 0.216 µM | 0.892 µM | 0.286 µM | 1.24 µM | 0.252 µM | 1.11 µM | 0.228 µM | 1.11 µM | 0.302 µM | 2.28 µM
5 | COc1cc2c(Nc3ccc(Br)cc3F)ncnc2cc1OCC1CCN(C)CC1 | 2.96 µM and 3.01 µM | 13.1 µM and > 10 µM | 0.471 µM and 0.556 µM | 11.4 µM and > 10 µM | 7.38 µM and > 10 µM | 19.7 µM and > 10 µM | 0.729 µM and 1.28 µM | 5.24 µM and > 10 µM | 1.31 µM and 3.98 µM | 15.1 µM and > 10 µM | 1.2 µM and 1.67 µM | 7.06 µM and > 10 µM | 1.58 µM and 3.04 µM | 12.1 µM and > 10 µM | 1.66 µM and 1.32 µM | 8.56 µM and > 10 µM
6 | COc1cccc(-c2nc(-c3ccc(NC(=O)c4ccccc4)cc3)[nH]c2-c2ccnc(Br)c2)c1 | 0.702 µM | 5.88 µM | 2.95 µM | > 100 µM | 3.3 µM | > 100 µM | 2.21 µM | 8.02 µM |  |  | 3.05 µM | 8.24 µM |  |  | 2.44 µM | > 100 µM
7 | C/C=C1\C(=O)O[C@@H]2C1C[C@@H]1O[C@H]2[C@H](C)CCC/C(C)=C/CC[C@@]1(C)O (some centres not stated) | 3.21 µM | 14.2 µM | 2.77 µM | 14.5 µM |  |  | 3.47 µM | 15.4 µM |  |  | 14.1 µM | 37.4 µM | 3.54 µM | 13 µM | 42.7 µM | > 100 µM
8 | CN(C)c1ccc2cc(-c3cc4c(oc3=O)-c3ccccc3OC4O)c(=O)oc2c1 (configuration not stated) | 8.33 µM | > 25 µM | 4.29 µM | 12.5 µM | 2.11 µM | 6.72 µM | 7.07 µM | > 25 µM | 5.18 µM | 15.9 µM | 5.96 µM | 19.8 µM | 6.2 µM | 19.9 µM | 1.01 µM | 8.55 µM
9 | CCOC(=O)C#Cc1ccc([N+](=O)[O-])cc1 |  | 3.41 µM |  | 10.2 µM |  | 4.76 µM |  | 3.47 µM |  | 3.12 µM |  | 25.6 µM |  | 3.39 µM |  | 4.05 µM
10 | COc1ccc(C(=O)C(Br)C(Br)C(=O)O)cc1 (configuration not stated) |  | 97.6 µM |  | > 100 µM |  | 63.7 µM |  | > 100 µM |  | > 100 µM |  | > 100 µM |  | > 100 µM |  | > 100 µM
11 | Cc1cccc2c1NC(=O)[C@@]21[C@H](C(=O)c2ccccc2)[C@]2(C(=O)Nc3ccccc32)[C@H]2CCCN21 | 36 µM | > 100 µM | 19.6 µM | 73 µM | 27.4 µM | > 100 µM | 22.4 µM | > 100 µM | > 100 µM | > 100 µM | 43.3 µM | > 100 µM |  |  | 20.9 µM | > 100 µM
12 | CCCCNC(=O)Oc1ccc2c(=O)c3sc4c(=O)c5ccccc5c(=O)c4c3c(=O)c2c1 | 1.77 µM | 4.23 µM | 0.874 µM | 2.18 µM | 0.154 µM | 0.293 µM | 1.24 µM | 2.86 µM | 0.158 µM | 0.294 µM | 1.4 µM | 2.8 µM | 0.174 µM | 0.35 µM | 2.11 µM | 5.4 µM
13 | O=C(Nc1ccc(Cl)cc1)c1cc2cc(F)ccc2cc1O | 2.9 µM | > 100 µM | 1.67 µM | 7.07 µM | 1.35 µM | 5.12 µM | 0.838 µM | 8.96 µM | 2.18 µM | > 100 µM | 1.08 µM | 5.76 µM | 1.78 µM | > 100 µM | 0.941 µM | 5.36 µM
14 | COc1cc([C@@H]2c3cc4c(cc3[C@H](OC(C)=O)[C@H]3COC(=O)[C@H]23)OCO4)cc(OC)c1OC | 0.0341 µM | > 100 µM | 0.044 µM | > 100 µM | 0.0311 µM | 21.9 µM |  |  | 0.0412 µM | > 100 µM | 0.035 µM | > 100 µM | 0.0457 µM | > 100 µM | 0.0669 µM | > 100 µM
15 | COc1ccc(-c2csc(NC(=O)N3CCN(c4cc5c(cc4F)c(=O)c(C(=O)O)cn5C4CC4)CC3)n2)cc1 | 1.46 µM | 19.6 µM | 2.66 µM | > 100 µM | 0.616 µM | 6.64 µM |  |  | 1.72 µM | > 100 µM |  |  | 1.49 µM | > 100 µM | 1.57 µM | > 100 µM
16 | COc1cc2c(=O)n(CCCn3ccnc3)c3c4cc5c(cc4ccc3c2cc1OC)OCO5 | 1.93 µM | > 100 µM | 0.278 µM | 1.36 µM | 0.701 µM | > 100 µM |  |  | 0.51 µM | > 100 µM | 0.443 µM | 11.3 µM | 0.635 µM | > 100 µM | 0.245 µM | 7.82 µM
17 | COC1CC2C=CC3C4OC2(/C(C)=C/C(C)C(C(C)O)OC1=O)C3C(O)C(C)C4OC(=O)c1ccc[nH]1 (configuration not stated) |  | > 100 µM |  | > 100 µM |  | > 100 µM |  | > 100 µM |  | > 100 µM |  |  |  | > 100 µM |  | > 100 µM
